The values that follow come from patent US20190282563A1, “Selective c-FLIP Inhibitors as Anticancer Agents” (Centre National de la Recherche Scientifique, priority 2016, published 2019).

“Also recorded” adds a separate entry of the source.

Assay [1] concerns H1703-FLIP(L) cells. Briefly: Annexin V-PE flow cytometry apoptosis test, H1703-FLIP(L) cells (TRAIL alone, molecule alone or combination). The assay is classed as cell-based, Human. The settings on record: 18 hours; for sensitization to TRAIL-induced apoptosis (percentage of apoptosis, annexin V): molecule at its most suitable concentration combined with TRAIL 100 ng/mL. As for the experimental part: (§1) Cell Culture. H1703 (Human non-small lung cancer cell line) cells were grown in RPMI 1640 (LONZA) culture media supplemented with 10% fetal bovine serum and puromycine antibiotic (2 μg/ml) from Sigma-Aldrich. The cells were kept in a humidified atmosphere in an incubator at 37° C. and 5% CO2. H1703 cells were a kind gift from O. Micheau (INSERM, Dijon, France).
(§2) Flow Cytometry Analysis. The apoptotic cell death was confirmed by flow cytometry (cytoFLEX, Backman Coulter). After treatment of cells with TRAIL alone, c-FLIP inhibitor alone, or co-admninistration TRAIL/c-FLIP inhibitor, the cells were collected, washed and re-suspended in 1× Annexin binding buffer. Annexin-V-PE was added to cells, and left 20 minutes at room temperature in the dark. Flow cytometric analysis was carried out in the final step.
(§3) Sensitivity of the H1703 cells to TRAIL: The first goal was to verify that the H1703 cells are sensitive to TRAIL. To do so, the cells were treated with TRAIL at a concentration of 100 ng/mL for 18 hours and then the cells were washed and incubated with Annexin V-PE to evaluate the apoptosis level using flow cytometry. […] So, the Inventors applied a range of concentrations for each molecule to determine the appropriate dose that has no toxic effect on the cells when administered alone.
Combination Treatment of TRAIL with each one of the 9 Identified Molecules: Following the identification of the best concentration for each compound, HE1703 cells were treated with TRAIL (100 ng/mL) alone or with one of the 9 identified molecules alone or with a combination of TRAIL and one of the 9 identified molecules for 18 hours. The percentage of apoptosis was measured by flow cytometry using an annexin V test, as described above. The results obtained are presented on FIGS. 2(A, B and C).
On the technique in general: In flow cytometry, cells or beads pass a laser one at a time.

For a further assay, the target named is T1, cFLIP/FADD interaction (Homo sapiens, UniProt O15519).
T1 construct: made in house; host or cells: E. coli: Rosetta (pET24b, c-FLIP(s)) and DH5α (pMALC2, FADD)
The experiment in a line: Pull down assay of FADD/c-FLIP interaction (MBP-trap column, Western blot). It counts as binding. The settings on record: c-FLIP(s) and FADD incubated 18 hours with molecule at different concentrations. As to the method: Transformation of Competent Bacteria. FLIP (s) and FADD genes were previously cloned and inserted in their respective plasmids pET24b and pMALC2, and provided as a kind gift from Pr. Richard Daniellou (ICOA, Orléans, France). Pet24b and Pmalc2 plasmids were mixed with their corresponding competent bacterial cells, Rosetta and DH5α cells respectively, and left on ice for 20 minutes. Heat-shocking steps were performed before adding LB medium and leaving cells to grow on 37° C. for 1 hour and then cells were spread on LB plates with appropriate antibiotics and incubated at 37° C. overnight.
Production of c-FLIP (s) and FADD proteins. Transformed competent cells were cultured in large amounts of LB growth at 37° C. and the expression of each protein was stimulated using 1M IPTG (Isopropyl β-D-1-thiogalactopyranoside) and cells were left to grow for 18 hours at 30° C. Cells were collected, centrifuged and resuspended in Tris/NaCl buffer (Tris 50 mM, NaCl 100 mM, pH 8.0) after which they were centrifuged at 6000 g, for 10 minutes at 4° C. Supernatant was removed and bacterial pellets were used for cell lysis and protein purification on Ni-NTA column and MBP-trap column for cFLIP(s) and FADD purification, respectively. The FLIP(s) is a His-tagged protein, and FADD is a MBP-tagged protein. The purified proteins were incubated with each molecule for 18 hours at +4° C. and then, the samples were passed again on MBP-trap columns.
Western Blot Analysis. The samples, purified and obtained after FADD/FLIP/compounds incubation, were run on 4-12% Bis-Tris polyacrylamide gels to evaluate the presence of FLIP and FADD bands.
Once purified, c-FLIP(s) and FADD were incubated for 18 hours with each one of the nine c-FLIP inhibitors at different concentrations. The samples were then passed on a MBP-trap column, which binds FADD (MBP-tagged protein). If cFLIP is still bound to FADD, then it is captured with FADD on the MBP column. Samples were then evaluated using a Western blot analysis by monitoring the disappearance of the c-FLIP band with increasing concentration of the c-FLIP inhibitor. Disappearance of the c-FLIP band in Western Blot corresponds to FADD-c-FLIP interaction inhibition.
(In western blotting, separated proteins are transferred to a membrane and probed.)

The subject of assay [2] is H1703-FLIP(L) cells. Briefly: Cleavage of caspase-8, caspase-3 and PARP in H1703-FLIP(L) cells. The settings on record: H1703 cells overexpressing FLIP. It counts as cell-based, Human. An excerpt:
(§4) Reactivation of the Apoptotic Pathway by c-FLIP inhibitors combined with TRAIL: Cleavage of caspases is a marker of apoptosis pathway initiation. Thus, the present Inventors have studied the cleavage of caspase-8, of caspase-3 and of PARP (a caspase-3 substrate, which undergoes cleavage during apoptosis) in H1703-mock cells and in H1703-FLIP(L) cells, in the presence of TRAIL alone, in the presence of a c-FLIP inhibitor (molecules (1), (3), (4) and (9)), and of a combination of TRAIL and one of the c-FLIP inhibitors. The results obtained are presented on FIG. 4(A)-(B). […] However, no cleavage was observed when H1703-MOCK cells were treated with a c-FLIP inhibitor alone.

In assay [3] the test system is H1703-Mock cells. Briefly: Cleavage of caspase-8, caspase-3 and PARP in H1703-mock cells. It counts as cell-based, Human.
Excerpt: as §4

In assay [4] the test system is H1703-Mock cells. Briefly: Annexin V-PE flow cytometry apoptosis test, H1703-Mock cells. The following applies: TRAIL 100 ng/mL, 18 hours. The assay is classed as cell-based, Human. As for the experimental part:
as §1, §2, §3

Where [5] appears, read: combination of TRAIL and c-FLIP inhibitor.
[6] abbreviates: TRAIL combined with c-FLIP inhibitor.

For `Cc1cc(/N=N/c2c(O)nc3ccccc3c2O)ccc1/N=N/c1ccc(C(=O)N(C)C)cc1` [Molecule (1)], in the assay with H1703-FLIP(L) cells [1], the “sensitization to TRAIL-induced apoptosis (percentage of apoptosis, annexin V)” value is given as “most active”. Besides, the “inhibition of the interaction between FADD and c-FLIP (disappearance of the c-FLIP band)” value (“inhibition” below) against cFLIP/FADD interaction was “inhibit the interaction between FADD and c-FLIP”. Besides, the “cleavage of caspase-8, caspase-3 and PARP” value (“cleavage” for short) with H1703-FLIP(L) cells [2] (c-FLIP inhibitor alone) is “no cleavage observed”; with H1703-FLIP(L) cells [2] (setting [5]), “induce cleavage of caspase-8, caspase-3 and PARP”; in the assay with H1703-Mock cells [3] (setting [6]), “cleavage of caspase-8, caspase-3 and PARP”; in the assay on H1703-Mock cells [3] (c-FLIP inhibitor alone), “no cleavage”.
For the molecule `Cc1cccc(Nc2sc(C(=O)c3cc4cc(Cl)ccc4o3)c(N)c2C#N)c1` [Molecule (9)], in the assay on H1703-FLIP(L) cells [1], the “sensitization to TRAIL-induced apoptosis (percentage of apoptosis, annexin V)” value is “most active”. Also, on cFLIP/FADD interaction, the “inhibition” value was “inhibit the interaction between FADD and c-FLIP”. Moreover, the “cleavage” value with H1703-FLIP(L) cells [2] (c-FLIP inhibitor alone) was “no cleavage observed”; in the assay with H1703-FLIP(L) cells [2] (setting [5]) it was “induce cleavage of caspase-8, caspase-3 and PARP”; in the assay with H1703-Mock cells [3] (setting [6]), “cleavage of caspase-8, caspase-3 and PARP”; with H1703-Mock cells [3] (c-FLIP inhibitor alone), “no cleavage”.
Take `CC1=C(C)Cc2c(OC(=O)c3ccccc3)ccc(OC(=O)c3ccccc3)c2C1` [Molecule (7)]: at cFLIP/FADD interaction, the “inhibition” value is “inhibit the interaction between FADD and c-FLIP”.
On to `NS(=O)(=O)c1ccc(NC(=S)NC(=O)c2ccco2)cc1` [Molecule (6)], for which, at cFLIP/FADD interaction, the “inhibition” value is reported as “no effect”.
Regarding `Cc1c2cnccc2c(C)c2c1c1ccccc1n2CCOC(=O)c1ccccc1` [Molecule (4)], the “sensitization to TRAIL-induced apoptosis (percentage of apoptosis, annexin V)” value in the assay with H1703-FLIP(L) cells [1] is “most active”. Besides, on cFLIP/FADD interaction, the “inhibition” value was “inhibit the interaction between FADD and c-FLIP”. In addition, the “cleavage” value is “no cleavage observed” in the assay with H1703-FLIP(L) cells [2] (c-FLIP inhibitor alone); “induce cleavage of caspase-8, caspase-3 and PARP” in the assay with H1703-FLIP(L) cells [2] (setting [5]); “cleavage of caspase-8, caspase-3 and PARP” in the assay with H1703-Mock cells [3] (setting [6]); “no cleavage” in the assay with H1703-Mock cells [3] (c-FLIP inhibitor alone).
Turning to `N#Cc1cc(-c2ccccc2)[nH]c1-c1nccc2ccccc12` [Molecule (3)], the “sensitization to TRAIL-induced apoptosis (percentage of apoptosis, annexin V)” value in the assay on H1703-FLIP(L) cells [1] was “most active”. The “inhibition” value on cFLIP/FADD interaction was “inhibit the interaction between FADD and c-FLIP”. Moreover, the “cleavage” value in the assay on H1703-FLIP(L) cells [2] (c-FLIP inhibitor alone) was “no cleavage observed”; with H1703-FLIP(L) cells [2] (setting [5]), “induce cleavage of caspase-8, caspase-3 and PARP”; in the assay with H1703-Mock cells [3] (setting [6]), “cleavage of caspase-8, caspase-3 and PARP”; in the assay on H1703-Mock cells [3] (c-FLIP inhibitor alone), “no cleavage”.

B1: TRAIL: death ligand TRAIL; KillerTRAIL (human recombinant BULK) purchased from Alexis Biochemicals (protein, UniProt P50591 39-281, looked up)
extracellular domain: TNELKQMQDKYSKSGIACFLKEDDSYWDPNDEESMNSPCWQVKWQLRQLVRKMILRTSEETISTVQEKQQNISPLVRERGPQRVAAHITGTRGRSNTLSSPNSKNEKALGRKINSWESSRSGHSFLSNLHLRNGELVIHEKGFYYIYSQTYFRFQEEIKENTKNDKQMVQYIYKYTSYPDPILLMKSARNSCWSKDAEYGLYSIYQGGIFELKENDRIFVSVTNEHLIDMDHEASFFGAFLVG
modifications: extracellular domain KillerTRAIL recombinant, Alexis
notes: death ligand TRAIL; KillerTRAIL (human recombinant BULK) purchased from Alexis Biochemicals
On to B1, for which the level of apoptosis entry in the assay on H1703-Mock cells [4] is reported as “more than 60%”. In addition, in the assay on H1703-FLIP(L) cells [1] (TRAIL 100 ng/mL, H1703-FLIP(L) cells overexpressing c-FLIP), the “effect of TRAIL alone on apoptosis” value is “resistant to TRAIL; also recorded: no effect”. Besides, the “cleavage” value in the assay with H1703-FLIP(L) cells [2] (TRAIL alone) was “no cleavage observed”; in the assay with H1703-Mock cells [3] (TRAIL alone), “cleavage of caspase-8, caspase-3 and PARP”.
